Assay results from US20140005163A1 (NOVARTIS AG, priority 2010, published 2014).

What was measured:
PI3K alpha = target: T1, PI3K alpha (Homo sapiens, UniProt P42336); assay: PI3K alpha kinase assay (Kinase-Glo luminescence); type: biochemical
T1 construct: p85(iSH2) fusion partner (see partner chain) (N); His tag (C); made in house; host or cells: baculovirus; Tn5 (Trichoplusia ni) or TiniPro insect cells
In short: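 Compounds are titrated at 8 concentrations and mixed with PI3Kα protein (EMV B1075, 10 nM) in phosphatidylinositol (10 μg/mL). ATP at 1 μM starts the 60-minute room-temperature reaction, which is stopped with Kinase-Glo before luminescence reading. Four-parameter curve fitting gives IC50.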

PI3K delta = target: T2, PI3K delta (Homo sapiens, UniProt O00329); assay: PI3K delta kinase assay (Kinase-Glo luminescence); type: biochemical
T2 construct: for the full-length p110-d subunit are generated and fused by overlapping PCR; p85(iSH2) fusion partner (see partner chain) (N); His tag (C); made in house; host or cells: baculovirus; Tn5 (Trichoplusia ni) or TiniPro insect cells
In short: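 ATP 1 μM, PI 10 μg/mL, PI3Kδ construct BV1060 10 nM (final); 10 mM Tris pH 7.5, 3 mM MgCl2, 50 mM NaCl, 0.05% CHAPS, 1 mM DTT; 60 min RT; Kinase-Glo stop, luminescence.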

PI3K beta = target: T3, PI3K beta (Homo sapiens, UniProt P42338); assay: PI3K beta kinase assay (Kinase-Glo luminescence); type: biochemical
T3 construct: for the full-length p110-b subunit are generated and fused by overlapping PCR; p85(iSH2) fusion partner (see partner chain) (N); His tag (C); made in house; host or cells: baculovirus; Tn5 (Trichoplusia ni) or TiniPro insect cells
In short: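 IC50 is derived by four-parameter logistic curve fitting of Kinase-Glo luminescence, which measures ATP left after a 60 min room-temperature reaction. Conditions are 25 nM His-tagged p85(iSH2)-p110β, 1 μM ATP and 10 μg/mL bovine liver phosphatidylinositol.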

mTOR = target: T4, mTOR (Homo sapiens, UniProt P42345); assay: Biochemical assay for m-TOR by TR-FRET; conditions: 8 μM ATP, 400 nM GFP-4EBP1, 0.5 nM mTOR
T4 construct: purchased Invitrogen Corporation (Carlsbad/CA, USA) PV4753
In short: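 Enzyme 0.5 nM, GFP-4EBP1 400 nM, ATP 8 μM (all final); 50 mM HEPES pH 7.5, 10 mM MnCl2, 1 mM DTT; rt. Detection: Tb-α-p4EBP1 [pT46] 0.5 nM in EDTA, TR-FRET, 15 min. Reference compound on every plate, 16-point duplicate dilutions.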

T4 sequence (P42345 1360-2549 limits assumed): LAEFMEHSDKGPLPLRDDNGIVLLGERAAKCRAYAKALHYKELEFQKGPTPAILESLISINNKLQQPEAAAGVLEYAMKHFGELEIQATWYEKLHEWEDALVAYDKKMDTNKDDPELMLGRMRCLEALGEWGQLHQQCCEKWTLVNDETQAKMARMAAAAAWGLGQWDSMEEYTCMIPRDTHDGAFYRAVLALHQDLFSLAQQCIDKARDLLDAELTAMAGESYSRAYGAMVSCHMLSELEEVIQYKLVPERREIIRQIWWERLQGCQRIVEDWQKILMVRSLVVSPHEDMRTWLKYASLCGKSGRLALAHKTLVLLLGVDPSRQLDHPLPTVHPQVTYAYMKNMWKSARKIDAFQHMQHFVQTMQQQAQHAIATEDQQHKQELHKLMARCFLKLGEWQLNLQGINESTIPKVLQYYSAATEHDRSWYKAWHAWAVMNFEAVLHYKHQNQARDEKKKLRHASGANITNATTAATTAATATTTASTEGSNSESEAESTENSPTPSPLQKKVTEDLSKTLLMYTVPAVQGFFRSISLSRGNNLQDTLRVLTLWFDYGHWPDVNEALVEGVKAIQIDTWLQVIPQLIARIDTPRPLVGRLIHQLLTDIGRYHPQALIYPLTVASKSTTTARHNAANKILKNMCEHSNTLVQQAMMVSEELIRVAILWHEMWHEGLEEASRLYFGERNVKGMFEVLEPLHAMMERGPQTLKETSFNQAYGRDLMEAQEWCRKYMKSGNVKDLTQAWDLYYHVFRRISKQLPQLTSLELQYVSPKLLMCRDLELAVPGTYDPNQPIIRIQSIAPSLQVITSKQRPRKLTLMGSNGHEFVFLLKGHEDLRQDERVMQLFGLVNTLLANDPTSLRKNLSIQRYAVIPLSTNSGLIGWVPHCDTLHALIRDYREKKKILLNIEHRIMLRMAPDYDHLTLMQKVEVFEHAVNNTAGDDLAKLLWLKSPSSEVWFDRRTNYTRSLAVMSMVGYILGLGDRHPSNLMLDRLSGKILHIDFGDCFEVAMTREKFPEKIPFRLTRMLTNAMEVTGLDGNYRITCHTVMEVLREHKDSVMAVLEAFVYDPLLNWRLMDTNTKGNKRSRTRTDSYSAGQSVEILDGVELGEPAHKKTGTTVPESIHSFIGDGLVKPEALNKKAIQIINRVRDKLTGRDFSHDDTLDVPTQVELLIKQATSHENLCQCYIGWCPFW
T1 sequence (P42336 with tags, fused parts or gaps limits assumed): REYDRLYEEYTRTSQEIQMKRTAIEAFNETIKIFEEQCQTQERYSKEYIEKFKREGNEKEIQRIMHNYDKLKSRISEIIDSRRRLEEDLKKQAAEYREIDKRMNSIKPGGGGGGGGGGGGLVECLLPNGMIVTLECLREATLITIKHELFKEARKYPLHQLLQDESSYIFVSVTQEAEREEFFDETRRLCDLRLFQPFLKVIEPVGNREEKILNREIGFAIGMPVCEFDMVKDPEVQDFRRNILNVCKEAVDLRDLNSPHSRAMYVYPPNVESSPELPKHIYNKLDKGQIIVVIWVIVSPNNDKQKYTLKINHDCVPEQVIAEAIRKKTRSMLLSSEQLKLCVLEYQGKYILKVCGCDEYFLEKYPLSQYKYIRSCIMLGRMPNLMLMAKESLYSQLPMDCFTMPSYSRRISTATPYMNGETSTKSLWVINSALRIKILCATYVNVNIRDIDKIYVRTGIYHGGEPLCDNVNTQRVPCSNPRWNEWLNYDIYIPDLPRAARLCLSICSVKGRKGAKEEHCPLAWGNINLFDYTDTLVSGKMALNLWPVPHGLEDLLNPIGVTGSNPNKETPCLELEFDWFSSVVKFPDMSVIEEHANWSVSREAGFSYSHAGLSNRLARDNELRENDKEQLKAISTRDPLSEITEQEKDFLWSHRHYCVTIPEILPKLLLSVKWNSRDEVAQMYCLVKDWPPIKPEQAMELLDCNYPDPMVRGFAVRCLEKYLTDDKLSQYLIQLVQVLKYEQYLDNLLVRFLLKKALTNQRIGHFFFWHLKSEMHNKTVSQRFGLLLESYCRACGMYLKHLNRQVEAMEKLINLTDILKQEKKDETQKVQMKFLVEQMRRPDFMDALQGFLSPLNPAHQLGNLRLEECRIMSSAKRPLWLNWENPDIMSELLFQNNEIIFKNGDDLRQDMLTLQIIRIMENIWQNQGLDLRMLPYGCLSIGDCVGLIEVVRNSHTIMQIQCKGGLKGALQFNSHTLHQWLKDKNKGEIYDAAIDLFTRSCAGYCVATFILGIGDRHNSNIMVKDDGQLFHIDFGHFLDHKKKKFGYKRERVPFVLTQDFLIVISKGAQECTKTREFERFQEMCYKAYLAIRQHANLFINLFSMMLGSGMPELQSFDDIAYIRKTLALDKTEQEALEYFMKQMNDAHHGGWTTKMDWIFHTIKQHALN
T2 sequence (O00329 with tags, fused parts or gaps limits assumed): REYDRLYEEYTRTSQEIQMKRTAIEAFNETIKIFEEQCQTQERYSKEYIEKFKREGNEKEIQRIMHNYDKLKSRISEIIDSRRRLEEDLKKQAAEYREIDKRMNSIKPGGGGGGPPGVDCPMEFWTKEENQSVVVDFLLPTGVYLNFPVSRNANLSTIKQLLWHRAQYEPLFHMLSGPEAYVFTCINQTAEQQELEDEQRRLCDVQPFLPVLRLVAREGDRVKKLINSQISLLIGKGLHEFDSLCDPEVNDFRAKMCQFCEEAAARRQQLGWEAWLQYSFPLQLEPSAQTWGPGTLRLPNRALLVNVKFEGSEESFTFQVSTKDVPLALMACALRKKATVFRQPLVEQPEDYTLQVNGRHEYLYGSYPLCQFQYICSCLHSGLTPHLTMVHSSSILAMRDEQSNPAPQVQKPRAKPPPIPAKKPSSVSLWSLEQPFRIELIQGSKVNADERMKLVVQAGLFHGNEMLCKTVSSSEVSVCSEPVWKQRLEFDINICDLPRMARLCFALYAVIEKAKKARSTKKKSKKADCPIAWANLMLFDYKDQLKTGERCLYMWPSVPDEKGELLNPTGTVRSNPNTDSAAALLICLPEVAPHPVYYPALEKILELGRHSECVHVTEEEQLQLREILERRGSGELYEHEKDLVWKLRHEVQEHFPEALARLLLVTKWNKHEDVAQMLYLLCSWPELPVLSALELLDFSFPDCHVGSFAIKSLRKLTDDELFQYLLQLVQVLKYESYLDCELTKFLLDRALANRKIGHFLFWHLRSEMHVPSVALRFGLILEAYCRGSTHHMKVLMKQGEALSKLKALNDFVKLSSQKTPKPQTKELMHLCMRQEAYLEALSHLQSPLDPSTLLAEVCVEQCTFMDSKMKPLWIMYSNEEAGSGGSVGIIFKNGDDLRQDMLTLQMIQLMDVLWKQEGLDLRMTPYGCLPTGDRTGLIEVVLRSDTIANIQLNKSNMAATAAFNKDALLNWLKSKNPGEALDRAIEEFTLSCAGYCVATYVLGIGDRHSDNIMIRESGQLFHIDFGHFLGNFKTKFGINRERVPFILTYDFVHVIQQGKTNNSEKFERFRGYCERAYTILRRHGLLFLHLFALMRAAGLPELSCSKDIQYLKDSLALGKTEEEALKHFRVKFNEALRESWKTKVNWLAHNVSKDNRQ
T3 sequence (P42338 with tags, fused parts or gaps limits assumed): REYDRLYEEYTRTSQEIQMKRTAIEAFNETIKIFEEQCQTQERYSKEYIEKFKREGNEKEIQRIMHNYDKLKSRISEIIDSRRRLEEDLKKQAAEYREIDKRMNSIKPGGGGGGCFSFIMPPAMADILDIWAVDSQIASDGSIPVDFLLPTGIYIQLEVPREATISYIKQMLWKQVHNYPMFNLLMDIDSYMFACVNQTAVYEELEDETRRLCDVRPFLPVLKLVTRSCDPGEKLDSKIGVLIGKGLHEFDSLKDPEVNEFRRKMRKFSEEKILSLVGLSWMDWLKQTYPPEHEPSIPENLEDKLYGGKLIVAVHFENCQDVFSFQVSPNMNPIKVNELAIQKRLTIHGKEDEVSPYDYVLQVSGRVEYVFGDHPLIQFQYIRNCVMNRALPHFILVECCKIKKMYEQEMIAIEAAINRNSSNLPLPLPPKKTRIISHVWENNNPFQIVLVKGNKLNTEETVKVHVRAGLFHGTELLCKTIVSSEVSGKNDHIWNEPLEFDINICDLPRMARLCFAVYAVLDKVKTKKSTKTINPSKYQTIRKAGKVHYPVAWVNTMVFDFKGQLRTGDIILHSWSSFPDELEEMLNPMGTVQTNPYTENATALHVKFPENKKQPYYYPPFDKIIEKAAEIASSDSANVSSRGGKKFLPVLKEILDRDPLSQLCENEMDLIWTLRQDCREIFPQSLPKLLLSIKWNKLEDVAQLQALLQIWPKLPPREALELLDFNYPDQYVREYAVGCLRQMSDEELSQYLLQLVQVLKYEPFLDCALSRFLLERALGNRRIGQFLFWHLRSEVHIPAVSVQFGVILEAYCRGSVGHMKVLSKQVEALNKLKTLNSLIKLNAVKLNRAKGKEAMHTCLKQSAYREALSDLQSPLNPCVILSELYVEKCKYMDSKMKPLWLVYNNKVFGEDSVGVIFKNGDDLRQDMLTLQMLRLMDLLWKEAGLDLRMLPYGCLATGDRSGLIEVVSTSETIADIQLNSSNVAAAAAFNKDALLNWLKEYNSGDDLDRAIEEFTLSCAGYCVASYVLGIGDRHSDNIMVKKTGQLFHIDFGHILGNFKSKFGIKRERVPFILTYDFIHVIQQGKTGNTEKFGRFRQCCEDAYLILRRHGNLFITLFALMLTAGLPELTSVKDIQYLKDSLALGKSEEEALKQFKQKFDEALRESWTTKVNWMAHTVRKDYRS

IC50 (PI3K alpha) [nM] | IC50 (PI3K delta) [nM] | IC50 (PI3K beta) [nM] | IC50 (mTOR) [nM] | Compound
24 | 19 | 91 | 13 | CCn1cc(-n2c(=O)n(C)c3cnc4ccc(-c5ccc(OC)nc5)cc4c32)c(C)n1 [Example 2.7, 1-(1-Ethyl-3-methyl-1H-pyrazol-4-yl)-8-(6-methoxy-pyridin-3-yl)-3-methyl-1,3-dihydro-imidazo[4,5-c]quinolin-2-one]
70 | 28 | 218 | 563 | Cc1nn(C)cc1-n1c(=O)n(C)c2cnc3ccc(-c4cccc(S(=O)(=O)N5CCCC5)c4)cc3c21 [Example 44, 1-(1,3-Dimethyl-1H-pyrazol-4-yl)-3-methyl-8-[3-(pyrrolidine-1-sulfonyl)-phenyl]-1,3-dihydro-imidazo[4,5-c]quinolin-2-one]
41 | 24 | 103 | 107 | CCOc1cc(-c2ccc3ncc4c(c3c2)n(-c2cn(C(C)C)nc2C)c(=O)n4C)cnc1COC [Example 197.2, 8-(5-Ethoxy-6-methoxymethyl-pyridin-3-yl)-1-(1-isopropyl-3-methyl-1H-pyrazol-4-yl)-3-methyl-1,3-dihydro-imidazo[4,5-c]quinolin-2-one]
18 | 34 | 130 | 6 | Cc1nn(C)cc1-n1c(=O)n(C)c2cnc3ccc(-c4ccc(C(N)=O)nc4)cc3c21 [Example 14, 5-[1-(1,3-Dimethyl-1H-pyrazol-4-yl)-3-methyl-2-oxo-2,3-dihydro-1H-imidazo[4,5-c]quinolin-8-yl]-pyridine-2-carboxylic acid amide]
30 | 19 | 22 | < 3 | CCNc1cc(-c2ccc3ncc4c(c3c2)n(-c2cn(C)nc2Cl)c(=O)n4C)cnc1C [Example 87.2, 1-(3-Chloro-1-methyl-1H-pyrazol-4-yl)-8-(5-ethylamino-6-methyl-pyridin-3-yl)-3-methyl-1,3-dihydro-imidazo[4,5-c]quinolin-2-one]
7 | 4 | 8 | 12 | CNc1cc(-c2ccc3ncc4c(c3c2)n(-c2cn(C)nc2Cl)c(=O)n4C)cnc1CO [Example 158.3, 1-(3-Chloro-1-methyl-1H-pyrazol-4-yl)-8-(6-hydroxymethyl-5-methylamino-pyridin-3-yl)-3-methyl-1,3-dihydro-imidazo[4,5-c]quinolin-2-one]
12 | 19 | 38 | 11 | COc1ccc(-c2ccc3ncc4[nH]c(=O)n(-c5cn(C)nc5C)c4c3c2)cn1 [Example 109, 1-(1,3-Dimethyl-1H-pyrazol-4-yl)-8-(6-methoxy-pyridin-3-yl)-1,3-dihydro-imidazo[4,5-c]quinolin-2-one]
39 | 33 | 146 | < 3 | Cc1nn(C)cc1-n1c(=O)n(C)c2cnc3ccc(-c4cncc(NC5CCC5)c4)cc3c21 [Example 172, 8-(5-Cyclobutylamino-pyridin-3-yl)-1-(1,3-dimethyl-1H-pyrazol-4-yl)-3-methyl-1,3-dihydro-imidazo[4,5-c]quinolin-2-one]
66 | 70 | 180 | 6 | Cc1nn(C)cc1-n1c(=O)n(C)c2cnc3ccc(-c4cncc(N5CCOCC5)c4)cc3c21 [Example 175.1, 1-(1,3-Dimethyl-1H-pyrazol-4-yl)-3-methyl-8-(5-morpholin-4-yl-pyridin-3-yl)-1,3-dihydro-imidazo[4,5-c]quinolin-2-one]
104 | 127 | 246 | 376 | Cc1nn(C)cc1-n1c(=O)n(C)c2cnc3ccc(-c4ccnc(OC(C)C)c4)cc3c21 [Example 92, 1-(1,3-Dimethyl-1H-pyrazol-4-yl)-8-(2-isopropoxy-pyridin-4-yl)-3-methyl-1,3-dihydro-imidazo[4,5-c]quinolin-2-one]
61 | 43 | 537 | 23 | CCOc1ccc(-c2ccc3ncc4c(c3c2)n(-c2cn(C(C)C)nc2C)c(=O)n4C)cn1 [Example 3.7, 8-(6-Ethoxy-pyridin-3-yl)-1-(1-isopropyl-3-methyl-1H-pyrazol-4-yl)-3-methyl-1,3-dihydro-imidazo[4,5-c]quinolin-2-one]
17 | 10 | 86 | 9 | COc1ccc(-c2ccc3ncc4c(c3c2)n(-c2cn(C)nc2C)c(=O)n4C)cn1 [Example 2.5, 1-(1,3-Dimethyl-1H-pyrazol-4-yl)-8-(6-methoxy-pyridin-3-yl)-3-methyl-1,3-dihydro-imidazo[4,5-c]quinolin-2-one]
6 | 5 | 10 | < 3 | CNc1cc(-c2ccc3ncc4c(c3c2)n(-c2cn(C)nc2C)c(=O)n4C)cnc1C [Example 163, 1-(1,3-Dimethyl-1H-pyrazol-4-yl)-3-methyl-8-(6-methyl-5-methylamino-pyridin-3-yl)-1,3-dihydro-imidazo[4,5-c]quinolin-2-one]
34 | 27 | 165 | 149 | Cc1nn(C)c(C)c1-n1c(=O)n(C)c2cnc3ccc(-c4cnc(N)c(CO)c4)cc3c21 [Example 169.2, 8-(6-Amino-5-hydroxymethyl-pyridin-3-yl)-3-methyl-1-(1,3,5-trimethyl-1H-pyrazol-4-yl)-1,3-dihydro-imidazo[4,5-c]quinolin-2-one]
92 | 20 | 110 | 306 | CCOc1ncc(-c2ccc3ncc4c(c3c2)n(-c2cn(C)nc2C)c(=O)n4C)cc1N(C)C(C)=O [Example 63, N-{5-[1-(1,3-Dimethyl-1H-pyrazol-4-yl)-3-methyl-2-oxo-2,3-dihydro-1H-imidazo[4,5-c]quinolin-8-yl]-2-ethoxy-pyridin-3-yl}-N-methyl-acetamide]
51 | 102 | 802 | 97 | Cc1nn(C)cc1-n1c(=O)n(C)c2cnc3ccc(-c4ccc(N5CCNCC5)nc4)cc3c21 [Example 126, 1-(1,3-Dimethyl-1H-pyrazol-4-yl)-3-methyl-8-(6-piperazin-1-yl-pyridin-3-yl)-1,3-dihydro-imidazo[4,5-c]quinolin-2-one]
76 | 10 | 169 | 7 | Cc1nn(C(C)C)cc1-n1c(=O)n(C)c2cnc3ccc(-c4cncc(N)c4)cc3c21 [Example 45.3, 8-(5-Amino-pyridin-3-yl)-1-(1-isopropyl-3-methyl-1H-pyrazol-4-yl)-3-methyl-1,3-dihydro-imidazo[4,5-c]quinolin-2-one]
25 | 18 | 385 | 17 | Cc1nn(C(C)C)cc1-n1c(=O)n(C)c2cnc3ccc(-c4cnc(N)c(F)c4)cc3c21 [Example 142.3, 8-(6-Amino-5-fluoro-pyridin-3-yl)-1-(1-isopropyl-3-methyl-1H-pyrazol-4-yl)-3-methyl-1,3-dihydro-imidazo[4,5-c]quinolin-2-one]
13 | 14 | 19 | 3 | CCNc1cc(-c2ccc3ncc4c(c3c2)n(-c2cn(C)nc2C)c(=O)n4C)cnc1CO [Example 155.1, 1-(1,3-Dimethyl-1H-pyrazol-4-yl)-8-(5-ethylamino-6-hydroxymethyl-pyridin-3-yl)-3-methyl-1,3-dihydro-imidazo[4,5-c]quinolin-2-one]
44 | 8 | 184 | 4 | CNc1cc(-c2ccc3ncc4c(c3c2)n(-c2cn(C(C)C)nc2C)c(=O)n4C)cnc1CO [Example 158.2, 8-(6-Hydroxymethyl-5-methylamino-pyridin-3-yl)-1-(1-isopropyl-3-methyl-1H-pyrazol-4-yl)-3-methyl-1,3-dihydro-imidazo[4,5-c]quinolin-2-one]
184 | 161 | 515 | 666 | Cc1nn(C)c(C)c1-n1c(=O)n(C)c2cnc3ccc(-c4ccc(CO)nc4)cc3c21 [Example 16.4, 8-(6-Hydroxymethyl-pyridin-3-yl)-3-methyl-1-(1,3,5-trimethyl-1H-pyrazol-4-yl)-1,3-dihydro-imidazo[4,5-c]quinolin-2-one]
